The results in this text go back to paper PMC9545147, “Impact of Sulfur Fumigation on Ginger: Chemical and Biological Evidence” (Journal of Agricultural and Food Chemistry, 2022).

The nature of series [1]: Pharmacokinetics in rats after single oral (intragastric) administration. Format: in vivo. The settings on record: male, Sprague-Dawley, rat, 10 mg/kg, plasma, mean ± SD (n = 6); for CL/F: read-out: Cl/F_obs (apparent total body clearance) (converted); for MRT: read-out: MRT (mean residence time); for half-life: read-out: T1/2 (terminal half-life) (converted); for Vd/F: read-out: Vz/F_obs (apparent volume of distribution). How it is done:
A multiple reaction monitoring (MRM) mass acquisition method using a triple quadrupole (QQQ) mass spectrometer was used to determine compound I and 6-shogaol in rat plasma. Chromatographic separation was performed on an Agilent 1290 UPLC equipped with a binary pump with degasser (G4220A), a thermostatic column compartment (G1316C), and an autosampler (G4226A). […] The mobile phase used for the UPLC consisted of 0.1% formic acid in water (v/v) (A) and 0.1% formic acid in acetonitrile (v/v) (B). The elution gradient procedure started at 15% B, then 0–5 min, 15–75% B; 5–6 min, 75–100% B; 6–9 min, 100% B; 9–12 min, 15% B.
MS data were acquired with an Agilent 6460 QQQ mass spectrometer (G6460) equipped with a JetStream electrospray ion (ESI) source. The MRM parameters were as follows: for 6-gingesulfonic acid, negative mode; fragmentor at 120 V; ion pair m/z 357.1 → 80.9 (15 V), 357.1 → 275.1 (15 V). For 6-shogaol, positive mode; fragmentor at 80 V; ion pair m/z 277.2 → 137.0 (11 V), 277.2 → 259.1 (7 V).
The pharmacokinetic parameters were calculated using the PKSolver 2.0 add-in with a non-compartment model.[11],[12] The time to peak drug concentration (Tmax) means the time when plasma concentrations reached a maximum value (Cmax). The area under the concentration versus time curve from zero to the last sampling time (AUC0–t) and to infinity (AUC0–∞), apparent volume of distribution (Vz/F_obs), terminal half-life (T1/2), mean residence time (MRT), and apparent total body clearance (Cl/F_obs), were calculated under the PKSolver add-in. All the results were presented as the mean ± standard deviation (SD) of six independent experiments.

Series [2] can be described thus: MTT cell viability assay, Hep-G2. The settings on record: human, Hep-G2 hepatocellular carcinoma cells, Hep-G2, 100 μM. Format: cell-based. How it is done:
(§1) HCT-116 colon cancer cells (Procell, Wuhan, China) were cultured in McCoy’s 5A medium (Gibco; Thermo Fisher Scientific Inc., MA, USA), Hep-G2 hepatocellular carcinoma cells (Procell, Wuhan, China) in Eagle’s minimum essential medium (EMEM, Gibco; Thermo Fisher Scientific Inc., MA, USA), and HCC-1806 breast cancer cells (Manassas, VA, USA) in RPMI-1640 medium (Gibco; Thermo Fisher Scientific Inc., MA, USA). All the mediums were supplemented with 10% fetal bovine serum and 1% penicillin–streptomycin (Thermo Fisher Scientific Inc., MA, USA) and cultured at 37 °C in a humidified incubator with 5% CO2.
(§2) Cell viability was determined by a 3-(4,5-dimethylthiazol-2-yl)-2,5-diphenyltetrazolium bromide (MTT) colorimetric assay. Each cell strain (6000 cells/well) was plated in 96-well microtiter plates and allowed to attach for 24 h at 37 °C and 5% CO2. Compound I or 6-shogaol (in dimethyl sulfoxide, DMSO) was added to the cell culture medium to desired final concentrations of 10, 40, and 100 μM. Final DMSO concentrations for control and treatments were 0.1%. There were six replicates of each condition. After the cells were cultured for 24 h, the medium was removed, and the cells were treated with 5 mg/mL MTT in fresh media. […] Absorbance values were derived from the plate reading at 490 nm on microplate readers (BioTek, Agilent).

The test system of series [3] is HCT-116 colon cancer cells. The experiment in a line: MTT cell viability assay, HCT-116. The conditions noted are these: HCT-116, 10 μM, 24 h. Format: cell-based, human. How it is done: as §1
(§3) Cell viability was determined by a 3-(4,5-dimethylthiazol-2-yl)-2,5-diphenyltetrazolium bromide (MTT) colorimetric assay. Each cell strain (6000 cells/well) was plated in 96-well microtiter plates and allowed to attach for 24 h at 37 °C and 5% CO2. Compound I or 6-shogaol (in dimethyl sulfoxide, DMSO) was added to the cell culture medium to desired final concentrations of 10, 40, and 100 μM. Final DMSO concentrations for control and treatments were 0.1%. There were six replicates of each condition. After the cells were cultured for 24 h, the medium was removed, and the cells were treated with 5 mg/mL MTT in fresh media. After incubation for 4 h at 37 °C, the medium containing MTT was removed, 100 μL of DMSO was added to the wells, and the plates were shaken gently for 30 min at room temperature. Absorbance values were derived from the plate reading at 490 nm on microplate readers (BioTek, Agilent).

Series [4] is described as follows: MTT cell viability assay, HCT-116. It counts as cell-based, human. The conditions noted are these: human, HCT-116 colon cancer cells; for viability at 24 h, 100 µM: HCT-116, 100 μM. How it is done:
as §1, §3
(In general: Formazan colour is commonly taken as a measure of viable cells.)

A short description of series [5]: Stability evaluation of samples in rat plasma (UPLC–QQQ–MS/MS method validation). Format: in vitro ADME. The settings on record: n=3; for Stability (Mean±SD), Postpreparative: rat plasma samples in autosampler for 8 h; for Stability (Mean±SD), Short Term / Stability (Mean±SD), Freeze and Thaw / Stability (Mean±SD), Long Term: rat plasma; for Stability (Mean±SD), Short Term: room temperature for 4 h; for Stability (Mean±SD), Freeze and Thaw: −20 °C for 24 h and thawed at room temperature, repeated three times; for Stability (Mean±SD), Long Term: −20 °C for 30 days. How it is done: The established UPLC–QQQ–MS/MS methods were validated according to the guidelines of the US Food and Drug Administration.[10] Linearity, limit of detection (LOD), lower limit of quantification (LLOQ), interday and intraday accuracy and precision, extraction recovery, and stability were measured. The calibration curve was replicated three times on the same day (intraday) and over 3 days (interday) to evaluate accuracy and precision. The correlation coefficient (r^2) of all calibration curves was at least 0.995, and the bias and coefficient of variation were kept within ±15%. Matrix effect and recovery evaluation: the matrix effect was given as the ratio of mean peak area for the post-extraction spiked samples (set 2, in plasma) to that of the standard solution samples (set 1, in MeOH). Recovery was quantified as the ratio of mean peak area of the pre-extraction spiked samples (set 3, standard with homogenate plasma) to that of the post-extraction spiked samples (set 2, in plasma). Stability: (1) freeze and thaw: samples were stored at −20 °C for 24 h and thawed at room temperature and repeated three times; (2) short term: samples were maintained at room temperature for 4 h; (3) long term: samples were kept at −20 °C for 30 days; (4) postpreparative: samples were maintained in an autosampler for 8 h. The stability of all the samples was limited to within ±15%, except for the LLOQ within ±20%.

Series [6] can be described thus: MTT cell viability assay, HCC-1806. Format: cell-based. The conditions noted are these: human, HCC-1806 breast cancer cells, HCC-1806, 100 μM. How it is done:
as §1, §2

Series [7] is described as follows: Metabolite profiling in rat plasma, urine and feces by UPLC–QTOF–MS/MS. The settings on record: rats; for biological samples in which metabolite was detected, 6-Shogaol treated: 10 mg/kg oral 6-shogaol, feces/urine/plasma.
Protocol: A total of 12 adult male Sprague–Dawley rats (220–240 g) were purchased from the Chinese University of Hong Kong. The animals were kept in standard living conditions (room temperature 22 ± 1 °C, 12 h light/dark normal cycle, and constant humidity) at the animal laboratory of the School of Chinese Medicine, Hong Kong Baptist University with free access to food and water. All experimental protocols were approved by the Environmental Health and Safety Committee of Hong Kong Baptist University, Hong Kong (03/2017), and the procedures were in accordance with the guidelines of the Animal Care Ethics Committee of Hong Kong Baptist University and the Department of Health, Hong Kong Special Administrative Region. Before the experiment, the rats were kept for one week to acclimate to the new environment. The rats were randomly divided into two groups (n = 6) and fasted with water freely available. On the day of the experiment, by intragastric administration, one group received compound I and the other group received 6-shogaol. Both compounds were dissolved in 2% Tween 80 with an administration volume of less than 0.5 mL at a dose of 10 mg/kg. Then, rats were housed singly during the blood collection period (a total of 72 h). For each sample, 300–500 μL blood was collected from the eye canthus of each rat into tubes containing 1.5 mL EDTA. Samples were drawn at 0.0, 0.08, 0.25, 0.50, 0.75, 1.0, 2.0, 4.0, 6.0, 12, 24, 36, 48, 60, and 72 h. The blood samples were centrifuged at 4000 rpm for 15 min at 4 °C to obtain plasma. Urine and feces were collected every 1–2 h throughout the experiments. The blood, urine, and feces were collected before the intragastric administration as a blank sample. The rats were sacrificed by cervical spondylolisthesis after the experiment.
For metabolite identification and relative quantification, homogeneous biospecimen samples were combined during periods from 0 h to the time when plasmatic concentrations reached a maximum value (Tmax) after intragastric administration. 50 μL of each plasma or urine sample was added to 1.2 mL of MeOH to precipitate proteins. […]

In general, AUC(0-inf) refers to total exposure, with the tail of the curve extrapolated. Lower therefore signals less exposure. By AUC(0-t) is commonly meant exposure summed from dosing to a finite time, without extrapolation to infinity. Low readings indicate less exposure, high ones more exposure. The term Cmax denotes the peak of the concentration-time curve. What is called Tmax is the time at which the peak concentration occurs. The MRT is a mean duration of stay, worked out from the concentration-time curve. By viability is commonly meant a per cent measure of how many cells are alive, often set against a control. High values mean better survival, low ones a greater loss of cells.

As for `CCCCCC(CC(=O)CCc1ccc(O)c(OC)c1)S(=O)(=O)O` (centres unmarked) [6-gingesulfonic acid], in series [1], the AUC(0-inf) was 9580 ± 2070 ng·h/mL, the exposure AUC(0-t) turned out to be 8710 ± 1930 ng·h/mL, the Cmax was 520 ± 138 ng/mL and the Tmax turned out to be 5.33 ± 1.63 h. Also, in series [1], the CL/F is 18 mL/min/kg, the MRT was determined as 30.4 ± 1.83 h, the half-life was 20.8 ± 5.23 h and the Vd/F was 32.4 ± 9.94 L/kg. Also, in series [2], the viability at 24 h, 100 µM turned out to be 84.2%. Also, in series [3], the cell viability result is “no significant change”. In series [4], this compound returned a viability at 24 h, 100 µM of 84.9%. In series [5], the “Stability (Mean±SD), Postpreparative” value came to 98.19±5.06%; the “Stability (Mean±SD), Short Term” value came to 99.26±1.58%; the “Stability (Mean±SD), Freeze and Thaw” value came out at 92.6±4.31%; the “Stability (Mean±SD), Long Term” value was 92.26±4.28%. The same compound gave a viability at 24 h, 100 µM in series [6] of 64.6%.
Regarding `CCCCC/C=C/C(=O)CCc1ccc(O)c(OC)c1` [6-shogaol, reference compound], in series [1], the AUC(0-inf) came out at 121 ± 36.3 ng·h/mL, the AUC(0-t) worked out at 76.8 ± 26.9 ng·h/mL, the Cmax was 155 ± 39 ng/mL and the Tmax was determined as 0.14 ± 0.09 h. In addition, in series [1], the CL/F was 1470 mL/min/kg, the MRT is 1.02 ± 0.82 h, the half-life was 0.64 ± 0.53 h and the Vd/F amounted to 71.9 ± 33 L/kg. In addition, the viability at 24 h, 100 µM in series [2] worked out at 2.73%. This compound displayed a viability at 24 h, 10 µM in series [4] (HCT-116, 10 μM) of 58.6%. Moreover, in series [4], the viability at 24 h, 100 µM stood at 4.17%. In series [5], the “Stability (Mean±SD), Postpreparative” value amounted to 95.87±8.69%; the “Stability (Mean±SD), Short Term” value came to 95.88±8.18%; the “Stability (Mean±SD), Freeze and Thaw” value is listed as 96.06±9.07%; the “Stability (Mean±SD), Long Term” value came to 101.23±12.95%. In addition, the viability at 24 h, 100 µM in series [6] came to 7.84%.
In the case of `CCCCCC=CC(O)CCc1ccc(O)c(OC)c1` (centres unmarked) [M1, 1-(4′-hydroxy-3′-methoxyphenyl)-4-decen-3-ol], the “biological samples in which metabolite was detected, 6-Shogaol treated” value in series [7] is given as “FUP”.
On the same count and under the same terms, in the case of `CCCCC/C=C/C(=O)CCc1ccc(OC2OC(C(=O)O)C(O)C(O)C2O)c(OC)c1` (stereo not drawn) [M3, s-6-shogaol-4′-O-β-glucuronide] it was “FUP”.
On to `CCCCCC(CC(=O)CCc1ccc(O)c(OC)c1)SCC(NC(=O)CCC(N)C(=O)O)C(=O)NCC(=O)O` (centres unmarked) [M4, 5-glutathionyl-6-shogaol], for which the “metabolite concentration in urine and feces samples of 6-gingesulfonic acid group versus 6-shogaol group” value in series [7] (10 mg/kg oral) was “lower concentrations”.
